Here are results for 17 molecules from patent US11926613B2, “Kinase inhibitors for the treatment of central and peripheral nervous system disorders” (UNIVERSITY OF MIAMI, priority 2017, dated 2024).

Where two headings read alike, the source gives them in different places.

What is called EC50 is the concentration giving half of the maximal effect. A high value points to a need for much substance.

One assay has as its system Primary Neurons. Put plainly: HCS neurite outgrowth assay (High Content Screening with Primary Neurons). It counts as cell-based.
For assay [1], the system named is neurons from hippocampi of E18 rat embryos. Put plainly: Neurite growth length (% NTL) in cultured E18 rat hippocampal neurons, 9-point dose response, 48 hours. It counts as cell-based. Particulars: Rattus norvegicus, Neuron, 48 h; for activity at 0.078 µM: 78 nM; for activity at 0.156 µM: 156 nM; for activity at 0.312 µM: 312 nM; for activity at 0.625 µM: 625 nM. The procedure: PRE-COATING CULTURE PLATES: On the day before the experiment, 96-well plates were pre-coated by plating 50 μl of Poly-D-lysine solution (PDL, 0.5 mg/mL) in each well. The next morning, the plates were washed four or five times with HBSS or PBS (150 μl/rinse), then left in buffer until cell plating
PREPARING THE CELLS: A timed pregnant rat carrying E18 embryos was euthanized using an IACUC approved method. In a laminar flow hood, the embryos were removed and placed in a petri dish containing Hank's Balanced Salt Solution (HBSS) with 20 mM HEPES, pH 7.3. Pup brains were dissected (see Meberg et al., 2003) and hippocampi were collected in 15 mL a conical tube containing Hibernate E with SM1 (2% v/v).
Dissociation media was prepared by combining 4.5 mL of Hibernate E (without SM1) with 0.5 mL of trypsin and 100 μl of DNAse solution. The medium over the hippocampi was carefully removed and replaced with dissociation solution, then incubated at 37° C. for 15-20 minutes, occasionally swirling the tube.
Using flame polished cotton plugged Pasteur pipettes, the dissociation media was removed, and then 5 mL of Hibernate E containing SM1 were added. The tube was swirled to thoroughly wash the tissue. The tissue was allowed to settle to the bottom of the tube, and the rinse solution was carefully removed. This step was repeated 5 times to dilute out trypsin and DNAse and remove any debris from lysed cells.
The final rinse media was removed from the tube and 1 pipette-full (1-2 mL) of Hibernate E with SM1 was added. Using the flame-polished Pasteur pipette (pre-wetted with rinse media), the tube was triturated until all cells had dissociated and no visible chunks of tissue remained. Fewer than ten triturations were typically performed. The volume was adjusted to 8-12 mL using Hibernate E containing SM1, the well was mixed and cell concentration was determined.
PLATING: The cells were diluted in culture media (NbActiv4 Cell-culture media) to a final concentration of 10,000 cells/mL. The HBSS was aspirated from PDL coated plates, and 150 μL of cell solution was loaded in the middle 48 wells at 1500 cells per well. Water was loaded in the outer wells to decrease evaporation from edge wells. Cells were allowed to adhere for 2 hours in tissue culture incubator prior to treatment.
TREATMENT: Compounds were diluted to various concentrations to provide 9 dose response concentrations of 20 μM, 10 μM, 5, μM, 2.5 μM, 1.25 μM, 0.625 μM, 0.3125 μM, 0.15625 μM, and 0.078125 μM. The plates were cultured for 48 hours, exposed to the compound at the various dose response concentrations.
FIXING THE CULTURES: The culture medium was removed from the plates and immediately replaced with 100-200 μl of warm (37° C.) 4% paraformaldehyde (PFA) solution in phosphate-buffered saline (PBS). The cells were fixed for 15-20 minutes at room temperature, and then rinsed with PBS (200 μl/well×3).
STAINING AND IMAGING: The PBS was removed and replaced with 100 μl of blocking/permeabilization buffer (PBS, 0.2% fish gelatin, 0.03% Triton X-100, 0.02% NaN3), then incubated overnight at 4° C. To this was added 100 μl of primary antibody solution (mouse anti-Beta III tubulin in blocking buffer) and incubate overnight at 4° C. The wells were rinsed with PBS (200 μl×3), which was then removed and replaced with 100 μl of secondary antibody solution (Goat anti-mouse Alexa 488, 10 μg/ml Hoechst 33342, 0.2% fish gelatin, 0.02% azide, in PBS). The plate was shaken gently on a rotating shaker for 2 hours, then rinsed with PBS (200 μl×5).
The plate was imaged using a Cellomics ArrayScan VTI in 2 different channels for nuclear staining (Hoechst) and cell body/neurite staining (βIII-tubulin). Typically, nine fields per well were imaged with a 5× objective and automatically traced by the Neuronal Profiling Bioapplication. To get reproducible results, at least 200-300 valid neurons were measured per condition. […]

On to `CCOc1ccc(O)c(C(=O)c2ccc(C(=O)N[C@@H]3CNC[C@H]3NC(=O)c3ccncc3)cc2)c1` [Example A90, N-((3R,4R)-4-(4-(5-ethoxy-2-hydroxybenzoyl)benzamido)pyrrolidin-3-yl)isonicotinamide], for which, in the assay on Primary Neurons (Primary neuron), the EC50 worked out at 1.79 µM.

For `O=C(N[C@@H]1CNC[C@H]1NC(=O)c1ccc(C(=O)c2cc(-c3ccccc3)ccc2O)cc1)c1ccncc1` [Example A93, N-((3R,4R)-4-(4-(4-hydroxy-[1,1′-biphenyl]-3-carbonyl)benzamido)pyrrolidin-3-yl)isonicotinamide], the midpoint of the response in the assay on Primary Neurons (Primary neuron), the EC50, lay at 13.3 µM.

In turn, `Cc1ccc(C(=O)c2ccc(C(=O)N[C@@H]3CNC[C@H]3NC(=O)c3ccncc3)cc2)c(O)c1` [Example A81, N-[(3R,4R)-4-[4-(2-hydroxy-4-methylbenzoyl)benzamido]pyrrolidin-3-yl]pyridine-4-carboxamide] displayed a concentration giving a half-maximal response (EC50) in the assay with Primary Neurons (Primary neuron) of 5.22 µM. In assay [1], the activity at 0.078 µM was 124%, the activity at 0.156 µM was 120%, the activity at 0.312 µM is 127% and the activity at 0.625 µM is 128%. For the same molecule, in assay [1], the activity at 1.25 µM is 128%, the activity at 2.5 µM turned out to be 125%, the activity at 5 µM is 130% and the activity at 10 µM is 113%. The activity at 20 µM in assay [1] came to 116%.

Molecule `Nc1nccc(C(=O)N[C@@H]2CNC[C@H]2NC(=O)c2ccc(C(=O)c3cccc(Cl)c3O)cc2)n1` [Example A70, 2-amino-N-[(3R,4R)-4-[4-(3-chloro-2-hydroxybenzoyl)benzamido]pyrrolidin-3-yl]pyrimidine-4-carboxamide] had an EC50 in the assay on Primary Neurons (Primary neuron) of more than 20 µM. Besides, in assay [1], the activity at 0.078 µM was 103%, the activity at 0.156 µM was determined as 107%, the activity at 0.312 µM was 115% and the activity at 0.625 µM was 122%. Besides, in assay [1], the activity at 1.25 µM was determined as 123%, the activity at 2.5 µM is 117%, the activity at 5 µM was 122% and the activity at 10 µM stood at 135%. Moreover, the activity at 20 µM in assay [1] came to 145%.

Take `O=C(N[C@@H]1CNC[C@H]1NC(=O)c1ccc(C(=O)c2cc(Cl)ccc2O)cc1)c1ccncc1` [Example A85, N-[(3R,4R)-4-[4-(5-chloro-2-hydroxybenzoyl)benzamido]pyrrolidin-3-yl]pyridine-4-carboxamide]: the EC50 in the assay with Primary Neurons (Primary neuron) was 3.82 µM. Also, in assay [1], the activity at 0.078 µM amounted to 134%, the activity at 0.156 µM was 144%, the activity at 0.312 µM was 140% and the activity at 0.625 µM was 153%. In assay [1], the activity at 1.25 µM came out at 177%, the activity at 2.5 µM was 219%, the activity at 5 µM was 376% and the activity at 10 µM worked out at 534%. Further, the activity at 20 µM in assay [1] was determined as 426%.

In the assay with Primary Neurons (Primary neuron), `O=C(N[C@@H]1CNC[C@H]1NC(=O)c1ccc(C(=O)c2c(O)cccc2F)cc1)c1ccncc1` [Example A51, N-[(3R,4R)-4-[4-(2-fluoro-6-hydroxybenzoyl)benzamido]pyrrolidin-3-yl]pyridine-4-carboxamide] showed an EC50 of 4.9 µM. In assay [1], the activity at 0.078 µM stood at 129%, the activity at 0.156 µM was determined as 129%, the activity at 0.312 µM was determined as 135% and the activity at 0.625 µM is 158%. In assay [1], the activity at 1.25 µM came to 191%, the activity at 2.5 µM was 260%, the activity at 5 µM came to 362% and the activity at 10 µM was determined as 506%. In addition, in assay [1], the activity at 20 µM was 421%.

As for `Nc1nccc(C(=O)N[C@@H]2CNC[C@H]2NC(=O)c2ccc(C(=O)c3ccccc3O)c(Cl)c2)n1` [Example A66, 2-amino-N-[(3R,4R)-4-[3-chloro-4-(2-hydroxybenzoyl)benzamido]pyrrolidin-3-yl]pyrimidine-4-carboxamide], the 50% effective concentration (EC50) in the assay with Primary Neurons (Primary neuron) is 2.33 µM. In assay [1], the activity at 0.078 µM is 113%, the activity at 0.156 µM came to 107%, the activity at 0.312 µM is 122% and the activity at 0.625 µM was 111%. In assay [1], the activity at 1.25 µM stood at 122%, the activity at 2.5 µM came out at 129%, the activity at 5 µM came out at 129% and the activity at 10 µM was 145%. In assay [1], the activity at 20 µM worked out at 161%.

In the assay with Primary Neurons (Primary neuron), `COc1ccc(O)c(C(=O)c2ccc(C(=O)O[C@@H]3CCNC[C@H]3NC(=O)c3ccncc3)cc2)c1F` [Example A31, (3R,4R)-3-(pyridine-4-amido)piperidin-4-yl 4-(2-fluoro-6-hydroxy-3-methoxybenzoyl)benzoate] came in with a half-maximal effective concentration (EC50) of 1.15 µM. For the same molecule, in assay [1], the activity at 0.078 µM is 122%, the activity at 0.156 µM is 120%, the activity at 0.312 µM amounted to 118% and the activity at 0.625 µM was found to be 115%. Moreover, in assay [1], the activity at 1.25 µM turned out to be 136%, the activity at 2.5 µM turned out to be 140%, the activity at 5 µM stood at 151% and the activity at 10 µM is 142%. Further, the activity at 20 µM in assay [1] turned out to be 137%.

Take `CCc1ccc(O)c(C(=O)c2ccc(C(=O)N[C@@H]3CNC[C@H]3NC(=O)c3ccncc3)cc2)c1` [Example A95, N-((3R,4R)-4-(4-(5-ethyl-2-hydroxybenzoyl)benzamido)pyrrolidin-3-yl)isonicotinamide]: the midpoint of the response with Primary Neurons (Primary neuron), the EC50, lay at 9.77 µM.

For the molecule `O=C(N[C@@H]1CNC[C@H]1NC(=O)c1ccc(C(=O)c2cc(OC(F)(F)F)ccc2O)cc1)c1ccncc1` [Example A96, N-((3R,4R)-4-(4-(2-hydroxy-5-(trifluoromethoxy)benzoyl)benzamido)pyrrolidin-3-yl)isonicotinamide], in the assay with Primary Neurons (Primary neuron), the EC50 turned out to be 1.45 µM.

In the assay with Primary Neurons, “2-(4-(((3R,4R)-4-(isonicotinamido)pyrrolidin-3- yl)carbamoyl)benzoyl)-4-methoxyphenyl acetate [Example A89]” displayed an EC50 of 8.08 µM.

In the assay on Primary Neurons (Primary neuron), `O=C(N[C@@H]1CNC[C@H]1NC(=O)c1ccc(C(=O)c2cc(OCc3ccccc3)ccc2O)cc1)c1ccncc1` [Example A97, N-((3R,4R)-4-(4-(5-(benzyloxy)-2-hydroxybenzoyl)benzamido)pyrrolidin-3-yl)isonicotinamide] gave a concentration giving a half-maximal response (EC50) of 11.3 µM.

Take `CC(C)(C)Oc1ccc(O)c(C(=O)c2ccc(C(=O)N[C@@H]3CNC[C@H]3NC(=O)c3ccncc3)cc2)c1` [Example A98, N-((3R,4R)-4-(4-(5-(tert-butoxy)-2-hydroxybenzoyl)benzamido)pyrrolidin-3-yl)isonicotinamide]: the EC50 in the assay on Primary Neurons (Primary neuron) came to 9.97 µM.

As to `COc1ccc(O)c(C(=O)c2ccc(C(=O)N[C@@H]3CCCNC[C@H]3NC(=O)c3ccncc3)cc2)c1F` [Example A94, N-((3R,4R)-4-(4-(2-fluoro-6-hydroxy-3-methoxybenzoyl)benzamido)azepan-3-yl)isonicotinamide], the EC50 with Primary Neurons (Primary neuron) came out at 0.813 µM.

Molecule “2-(4-(((3R,4R)-4-(isonicotinamido)pyrrolidin-3- yl)carbamoyl)benzoyl)-4-methoxyphenyl benzoate [Example A87]” returned a concentration for a half-maximal effect (EC50) in the assay on Primary Neurons of 13.1 µM.

For `O=C(N[C@@H]1CNC[C@H]1NC(=O)c1ccc(C(=O)c2cc(F)ccc2O)cc1)c1ccncc1` [Example A91, N-((3R,4R)-4-(4-(5-fluoro-2-hydroxybenzoyl)benzamido)pyrrolidin-3-yl)isonicotinamide], it took 3.41 µM to reach a half-maximal effect in the assay with Primary Neurons (Primary neuron) (EC50).

With `O=C(N[C@@H]1CNC[C@H]1NC(=O)c1ccc(C(=O)c2cc(C(F)(F)F)ccc2O)cc1)c1ccncc1` [Example A99, N-((3R,4R)-4-(4-(2-hydroxy-5-(trifluoromethyl)benzoyl)benzamido)pyrrolidin-3-yl)isonicotinamide], the half-maximal effective concentration (EC50) in the assay with Primary Neurons (Primary neuron) is 2.36 µM.
